One compound from EP4670722A1, “PROPHYLACTIC OR AMELIORATING AGENT FOR CELL AGING” (Kyowa Pharma Chemical Co., Ltd., priority 2023, dated 2024) can be followed below.

Experiment [1] concerns GLS1. Briefly: GLS1 expression analysis (ELISA) in BV2. The class given is cell-based. As to conditions: mouse microglial cells (BV2), at least 200 µg/mL or more, 24 hours; effect increased from 200 to 1000 µg/mL; Fig. 12. As to the method:
Mouse microglial cells (BV2) were cultured in glutamine-containing DMEM. The cultured cells were collected by trypsin treatment. The collected cells were seeded in a 6-well plate at a cell density of 4 x 10^5 cells/well and cultured for 24 hours in a 37°C, 5% CO2 incubator. After culturing, glutamine-free DMEM containing the test sample (2'-FL and lactose) at 50 µg/mL, 200 µg/mL, or 1000 µg/mL was added, and cultured for 24 hours in a 37°C, 5% CO2 incubator. The culture supernatant was removed, the cells were washed twice with PBS, and 0.20 mL of RIPA buffer was added to extract total protein. Protein in each protein extract was quantified by the Bradford assay.
(§1) Protein extracts were collected in the same manner as in [Example 10-1 B. Human gastric undifferentiated carcinoma cells (KKLS)], [Example 10-1 C. Mouse microglial cells (BV2)], [Example 10-1 D. Human gingival fibroblasts (Gin-1)], and [Example 10-1 E. Human umbilical vein endothelial cells (HUVEC)], respectively, except that a medium same as the above-mentioned medium but not containing the test sample was used instead of the medium containing the test sample, and protein in each protein extract was quantified by the Bradford assay.
(§2) An ELISA method was performed using an antibody against GLS1 to measure the amount of GLS1 in the samples. […]

Experiment [2] concerns GLS1. In words: GLS1 expression analysis (ELISA) in Gin-1. The class given is cell-based. The settings on record: human gingival fibroblasts (Gin-1), 50 µg/mL to 1000 µg/mL, 24 hours; effect increased as content increased; Fig. 12. The method, then: Human gingival fibroblasts (Gin-1) were cultured in DMEM containing 10% FBS. The cultured cells were collected by trypsin treatment. Cells in a state where GLS1 was expressed without addition of the test sample were used for the test. Cells collected by trypsin treatment were seeded in a 6-well plate, and when they reached 80% confluence, DMEM containing the test sample (2'-FL and lactose) at 50 µg/mL, 200 µg/mL, or 1000 µg/mL was added, and cultured for 24 hours in a 37°C, 5% CO2 incubator. The culture supernatant was removed, the cells were washed twice with PBS, and 0.20 mL of RIPA buffer was added to extract total protein. Protein in each protein extract was quantified by the Bradford assay.
as §1, §2
On the technique in general: An ELISA detects its analyte on a solid surface through an enzyme-linked reagent.

Experiment [3] concerns Human normal dermal fibroblasts (NB1RGB) with a PDL of 30 or less. Briefly: Cell viability (Cell Counting Kit-8) of tunicamycin-treated dermal fibroblasts. The class given is cell-based. The settings on record: NB1RGB PDL of 30 or less, tunicamycin 0.3 µg/mL, 50 µg/mL to 200 µg/mL, 24 hours; effect increased as content increased; Fig. 6. As to the method: Human normal dermal fibroblasts (NB1RGB) with a PDL of 30 or less were cultured using DMEM containing 10% FBS. The cultured cells were collected by trypsin treatment. The collected cells were seeded in a 96-well plate, and when they reached 100% confluence, tunicamycin was added at 0.3 µg/mL, and the cells were cultured for 24 hours. A group was also prepared in which FBS-free DMEM medium containing a test sample (2'-fucosyllactose) at 50 µg/mL, 100 µg/mL, or 200 µg/mL was added simultaneously with tunicamycin, and cultured for 24 hours. After completion of culture, the viability of human normal dermal fibroblasts was evaluated using Cell Counting Kit-8 (manufactured by Dojindo Laboratories). The measurement wavelength (As) was set to 450 nm, and the reference wavelength was set to 620 nm.
Human normal dermal fibroblasts with a PDL of 30 or less were cultured and the absorbance at a measurement wavelength of 450 nm was measured in the same manner as in Example 5-1, except that tunicamycin and the test sample were not added. The obtained absorbance was designated as Ab, and the cell viability represented by the above formula (1) was determined.

Experiment [4] relates to GLS1. Briefly: GLS1 expression analysis (Western blot) in dermal fibroblasts cultured with medium of hydrogen peroxide-treated cells. It is filed as cell-based, Human. The settings on record: dermal fibroblasts NB1RGB, 50 µg/mL to 200 µg/mL, 24 hours, protein level vs β-actin; effect increased as content increased; Fig. 4. As to the method:
Human normal dermal fibroblasts (NB1RGB, PDL of 30 or less) were cultured using DMEM containing 10% FBS. The cultured cells were collected by trypsin treatment. The collected cell-containing liquid was diluted with DMEM containing 10% FBS to a cell concentration of 5.0 x 10^5 cells, seeded in a 10 cm dish, and cultured until 60% confluent. Thereafter, the cultured cells were subjected to a treatment of exposure to a medium containing 50 µM hydrogen peroxide (FBS-free) for 2 hours once a day for 3 days. Then, the medium was replaced with DMEM containing 5% FBS, and after 2 days, the medium (medium A) was collected. Dermal fibroblasts not exposed to hydrogen peroxide were diluted with DMEM containing 10% FBS to a concentration of 5.0 x 10^5 cells, seeded in a 10 cm dish, and cultured for 24 hours. […]
The dermal fibroblasts prepared in [Example 3-1] were diluted with DMEM medium containing 10% FBS to a concentration of 8.0 x 10^4 cells, seeded in a 6-well plate, and cultured until 80% confluent. […] The extracted proteins were quantified by the Bradford assay.
Except that no test sample was added, skin fibroblasts prepared in [Example 3-1] and skin fibroblasts cultured using DMEM containing 10% FBS were cultured in the same manner as in [Example 3-2], and proteins were extracted. The extracted proteins were quantified by the Bradford assay. […]
A general note: Immunoblotting shows a protein as a band on a membrane.

`C[C@@H]1O[C@@H](O[C@H]2[C@H](O[C@H]3[C@H](O)[C@@H](O)C(O)O[C@@H]3CO)O[C@H](CO)[C@H](O)[C@@H]2O)[C@@H](O)[C@H](O)[C@@H]1O` (stereo partly shown) [2'-FL, 2'-fucosyllactose]: the GLS1 expression result with GLS1 [1] and in the experiment with GLS1 [2] was “suppressed GLS1 expression” in each case. In addition, the “endoplasmic reticulum stress (cell viability)” value in experiment [3] is “ameliorated endoplasmic reticulum stress”. In addition, in the experiment on GLS1 [4], the “expression of GLS1” value is given as “suppressed the expression of GLS1”.
